Several values for one entry are separate records, joined by “and”; a condition that tells them apart may be missing. Identical values can stand only once. Like-named read-outs stand apart in the source and are kept apart here.
What was measured:
CYP3A4 (BDGentest) = target: T1, CYP3A4 (BDGentest) (Homo sapiens, UniProt P08684); assay: New CYP3A4 bioassay with dibenzylfluorescein (DBF) substrate (Foster et al. 2011); format: biochemical; conditions: for IC50: human microsomes; for % Activity relative to dillapiol = 1: new CYP3A4 bioassay, inhibition relative to dillapiol
T1 construct: purchased BDGentest
T1 sequence (P08684 whole entry): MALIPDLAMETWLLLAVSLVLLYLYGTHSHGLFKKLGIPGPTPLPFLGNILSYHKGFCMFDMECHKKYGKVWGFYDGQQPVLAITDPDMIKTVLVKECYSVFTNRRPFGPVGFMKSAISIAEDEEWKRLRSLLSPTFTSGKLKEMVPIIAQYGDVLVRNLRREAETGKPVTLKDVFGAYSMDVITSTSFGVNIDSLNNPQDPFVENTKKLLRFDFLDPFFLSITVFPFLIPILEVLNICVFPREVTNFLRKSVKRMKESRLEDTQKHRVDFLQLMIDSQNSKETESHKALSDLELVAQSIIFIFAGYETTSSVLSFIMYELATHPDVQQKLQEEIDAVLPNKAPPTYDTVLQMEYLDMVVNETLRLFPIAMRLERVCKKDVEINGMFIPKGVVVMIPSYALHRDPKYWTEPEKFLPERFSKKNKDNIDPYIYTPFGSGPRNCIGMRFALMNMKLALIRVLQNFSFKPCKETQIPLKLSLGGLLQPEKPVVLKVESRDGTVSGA
Protocol: (§1) In the second set of experiments, new CYP3A4 enzyme inhibition assays were conducted with a designed set of analogs and newer method described by Foster et al. (J. Agric. Food Chem, 2011, 59(9):5159-5163). This assay using the substrate dibenzylfluorescein (DBF) is considered more representative of CYP3A4 activity as compared to the benzyloxyresorufin assay previously used (Budzinski et al., 2000, Phytomedicine, 7(4):273-282).
Aliquots (10 μL) of stock solutions of the undiluted products were screened for their ability to inhibit CYP3A4 (BDGentest) metabolism of the non-fluorescent dibenzylfluorescein (DBF) substrates to the fluorescent metabolite using an in vitro fluorometric microtiter plate assay (CytoFluor Series 4000 multi-well plate reader). Briefly, assays were performed with 10 μL of product in clear-bottom, opaque-welled microtiter plates (96 well, Corning Costar). Control and control blank wells contained 5% ethanol, and test and test blank wells contained the product. All wells tested contained distilled water, β-nicotinamide adenine dinucleotide phosphate, reduced form (NADPH, Sigma Chemicals), and the enzyme substrate DBF (final concentration of 1 μM/well), for a total reaction volume of 200 μL. Control and test wells also contained live isozyme, within human microsomes, in phosphate buffer solution (PBS; 0.5 M, pH 7.4), and control blank and test blank wells contained denatured isoenzyme in PBS. Fluorescence was measured at 485 nm excitation and 530 nm emission, with a gain of 50.

human cytochrome CYP3A4 = human cytochrome CYP3A4 (Homo sapiens, UniProt P08684); assay: CYP3A4 inhibition assay of dillapiol derivatives (earlier benzyloxyresorufin assay); format: biochemical; conditions: for Rel. Activity Dillapiol = 1.0: CYP3A4 inhibition relative to dillapiol
Chain of human cytochrome CYP3A4 (P08684 whole entry): as above
Protocol: A suite of dillapiol derivatives were synthesized and assayed for their capacity to inhibit human cytochrome CYP3A4. For each molecule, experimental IC50 values for CYP3A4 inhibition were determined. These IC50 values together with the log of the octanol-water partition coefficient (logP) and molecular refractivity (MR) are shown in Table 1, and were used as parameters to model a quantitative structure-activity relationship (QSAR). The resulting equations were used to guide the design of further derivatives with enhanced CYP3A4 inhibition.
as §1

[1] = DBF substrate 1 μM, read-out: IC50 (converted)
[2] = Table 1, CYP3A4 inhibition, read-out: IC50

SMILES | % Activity relative to dillapiol = 1 (CYP3A4 (BDGentest)) | IC50 (CYP3A4 (BDGentest); [1]) | also measured
COc1c(CCCOC(=O)Cc2ccccc2)cc2c(c1OC)OCO2 | 4.83 | – | IC50 (CYP3A4 (BDGentest); IC50, DBF substrate 1 μM): 1900 nM
C=CCc1cc2c(c(CC=C)c1OC)OCO2 [Compound 9] | – | – | IC50 (human cytochrome CYP3A4): 810 µM; Rel. Activity Dillapiol = 1.0 (human cytochrome CYP3A4; Table 1): 2.0
COc1ccc(OC)c(COc2cc3c(cc2CCCOC(=O)c2ccccc2)OCO3)c1 [drawing 60] | 25.5 | 360 nM and 355 nM | –
COc1c(CCCOC(=O)C(c2ccccc2)c2ccccc2)cc2c(c1OC)OCO2 [Compound 48] | – | – | CYP3A4 inhibition (in words) (CYP3A4 (BDGentest)): potent inhibitor
COc1c(CCC(C)O)cc2c(c1OC)OCO2 (stereo not drawn) | – | > 20000 nM | –
COc1c(CCCOC(=O)c2ccc([N+](=O)[O-])cc2)cc2c(c1OC)OCO2 | – | > 13000 nM | –
COc1c(C/C=C/Cc2cc3c(c(OC)c2OC)OCO3)cc2c(c1OC)OCO2 [drawing 66] | 6.3 | 1440 nM | –
COc1c(CCCOC(=O)/C=C/c2ccccc2)cc2c(c1OC)OCO2 | 3.86 | 2380 nM | –
COc1c(CCCOC(=O)c2ccc(Cl)cc2Cl)cc2c(c1OC)OCO2 | 6.56 | 1400 nM and 1430 nM | –
O=C(OCCCc1cc2c(cc1OCc1ccccc1)OCO2)c1ccc2c(c1)OCO2 | 6.6 | 1400 nM and 1380 nM | –
COc1c(CCCOCc2ccc(F)cc2)cc2c(c1OC)OCO2 | 0.89 | 10300 nM | –
C=CCc1cc2c(c(OCCCCCCCC)c1OC)OCO2 [Compound 3] | – | – | Rel. Activity Dillapiol = 1.0 (human cytochrome CYP3A4; Table 1): 1.3; IC50 (human cytochrome CYP3A4; [2]): 320 µM
C=CCc1cc2c(c(S(=O)(=O)c3ccc(OC)cc3)c1O)OCO2 [Compound 23] | – | – | Rel. Activity Dillapiol = 1.0 (human cytochrome CYP3A4; Table 1): 1.8; IC50 (human cytochrome CYP3A4; [2]): 230 µM
C=CCc1cc2c(c(Sc3ccc(OC)cc3)c1OC)OCO2 [Compound 22] | – | – | Rel. Activity Dillapiol = 1.0 (human cytochrome CYP3A4; Table 1): 0.67; IC50 (human cytochrome CYP3A4; [2]): 660 µM
C=CCc1cc2c(c([S+]([O-])c3ccccc3)c1OC)OCO2 (stereo not drawn) [Compound 26] | – | – | Rel. Activity Dillapiol = 1.0 (human cytochrome CYP3A4; Table 1): 2.7; IC50 (human cytochrome CYP3A4; [2]): 150 µM
O=C(CCCC/C=C/c1ccc2c(c1)OCO2)OCCCO | 2.2 | 4100 nM and 4080 nM | –
C=CCc1cc2c(c(C(O)CCCCCCCC)c1OC)OCO2 (stereo not drawn) [Compound 2] | – | – | CYP3A4 inhibition compared with dillapiol (in words) (human cytochrome CYP3A4; Table 1): at least four times lower than dillapiol; Rel. Activity Dillapiol = 1.0 (human cytochrome CYP3A4; Table 1): 15; IC50 (human cytochrome CYP3A4; [2]): 26 µM
COc1c(CC/C=C/C(=O)NC(C)C)cc2c(c1OC)OCO2 | 4.37 | 2100 nM | –
C=CCc1cc2c(c(SC)c1O)OCO2 [Compound 19] | – | – | Rel. Activity Dillapiol = 1.0 (human cytochrome CYP3A4; Table 1): 1.0; IC50 (human cytochrome CYP3A4; [2]): 420 µM

SMILES | % Activity relative to dillapiol = 1 (CYP3A4 (BDGentest)) | IC50 (CYP3A4 (BDGentest); [1]) | also measured
C=CCc1cc2c(c(S(C)(=O)=O)c1OC)OCO2 [Compound 15] | – | – | Rel. Activity Dillapiol = 1.0 (human cytochrome CYP3A4; Table 1): 0.37; IC50 (human cytochrome CYP3A4; [2]): 1100 µM
C=CCc1cc2c(cc1OCc1cc(OC)ccc1OC)OCO2 | 4.27 | 2150 nM | –
COc1c(CCCOC(=O)c2ccccc2Cl)cc2c(c1OC)OCO2 | 1.75 | 5270 nM | –
COc1c(CCCOC(=O)c2ccc(Cl)cc2)cc2c(c1OC)OCO2 | 5.89 | 1560 nM | –
C=CCc1cc2c(c(/C=C/C(=O)OC)c1OC)OCO2 [Compound 6] | – | – | Rel. Activity Dillapiol = 1.0 (human cytochrome CYP3A4; Table 1): 1.7; IC50 (human cytochrome CYP3A4; [2]): 240 µM
O=C(O)CCCC/C=C/c1ccc2c(c1)OCO2 | – | > 20100 nM | –
O=C(OCCCc1cc2c(cc1OCc1ccccc1)OCO2)c1ccccc1 | 2.3 | 3900 nM and 3840 nM | –
COc1c(CCCC(O)(c2ccccc2)c2ccccc2)cc2c(c1OC)OCO2 | 8.7 | 1060 nM | –
COc1cc2c(cc1CCCOC(=O)c1ccccc1)OCO2 [drawing 73] | 4.4 | 2070 nM | –
COc1c(CCCOC(=O)C(C)(C)C)cc2c(c1OC)OCO2 | 3.3 | 2780 nM and 2770 nM | –
COc1c(C/C=C/Cc2cc3c(c(OC)c2OC)OCO3)cc2c(c1OC)OCO2 [Compound 56] | 5.1 | 1800 nM | % Activity relative to dillapiol = 1 (CYP3A4 (BDGentest); listed as drawing 59): 5.1
CCCCCC(=O)OCCCc1cc2c(c(OC)c1OC)OCO2 | 2.82 | 3250 nM | –
COc1ccc(OC)c(COc2cc3c(cc2CCCOC(=O)c2ccccc2)OCO3)c1 [Compound 50] | – | – | CYP3A4 inhibition (in words) (CYP3A4 (BDGentest)): strong CYP3A4 inhibitors
CCCc1cc2c(cc1OC)OCO2 | – | – | IC50 (CYP3A4 (BDGentest); IC50, DBF substrate 1 μM): > 26000 nM
COc1c(CCCOC(=O)C2CCCCC2)cc2c(c1OC)OCO2 | 4.83 | 1900 nM | –
COc1cc2c(cc1CCCOC(=O)/C=C/c1ccccc1)OCO2 | 1.94 | 4730 nM | –
COc1cc2c(cc1CCCO)OCO2 | 2.25 | 4050 nM and 4040 nM | –
COc1ccc(OC)c(COc2cc3c(cc2CCCOC(=O)C(c2ccccc2)c2ccccc2)OCO3)c1 [drawing 79] | 41 | 230 nM | –
COc1c(CCCOC(=O)c2ccc3c(c2)OCO3)cc2c(c1OC)OCO2 | 3.49 | 2630 nM | –

SMILES | % Activity relative to dillapiol = 1 (CYP3A4 (BDGentest)) | IC50 (CYP3A4 (BDGentest); [1]) | also measured
OC(CCCC/C=C/c1ccc2c(c1)OCO2)(c1ccccc1)c1ccccc1 [Compound 59] | 17 | 540 nM and 517 nM | –
COc1c(CCCOC(C)=O)cc2c(c1OC)OCO2 | 1 | 9220 nM and 9210 nM | –
OCCCCc1ccc2c(c1)OCO2 | – | > 26000 nM | –
COc1c(CCCOC(=O)C(c2ccccc2)c2ccccc2)cc2c(c1OC)OCO2 [drawing 58] | 21.15 | 434 nM | –
COc1cc2c(cc1CCCOC(=O)C(c1ccccc1)c1ccccc1)OCO2 [Compound 61] | 19.5 | 470 nM | CYP3A4 inhibition (in words) (CYP3A4 (BDGentest)): strong CYP3A4 inhibitors
O=C(OCCCc1cc2c(cc1OCc1ccccc1)OCO2)C(c1ccccc1)c1ccccc1 [drawing 80] | 14 | 620 nM and 624 nM | –
COc1c(CCCC(c2ccccc2)c2ccccc2)cc2c(c1OC)OCO2 | – | > 20000 nM | –
C=CCc1cc2c(cc1OCc1ccccc1)OCO2 | 6.37 | 1440 nM and 1430 nM | –
O=C(/C=C/c1ccccc1)OCCCc1cc2c(cc1OCc1ccccc1)OCO2 | 1.125 | 8000 nM and 7920 nM | –
COc1cc2c(cc1CCCOC(=O)c1ccccc1)OCO2 [Compound 63] | – | – | CYP3A4 inhibition (in words) (CYP3A4 (BDGentest)): strong CYP3A4 inhibitors
C=CCc1cc2c(cc1OC)OCO2 | – | – | IC50 (CYP3A4 (BDGentest); IC50, DBF substrate 1 μM): > 26000 nM
COc1c(CCCOC(=O)CCCc2ccccc2)cc2c(c1OC)OCO2 | 2.22 | 4140 nM | –
C/C=C(\C)C(=O)OCCCc1cc2c(c(OC)c1OC)OCO2 | 5.9 | 1550 nM | –
C=CCc1cc2c(cc1O)OCO2 [drawing 54] | – | > 28100 nM | –
COc1c(CCCCO)cc2c(c1OC)OCO2 | 0.8 | 11600 nM | –
O=C(OCCCc1cc2c(cc1OCc1ccccc1)OCO2)C(c1ccccc1)c1ccccc1 [Compound 70] | 4 | – | CYP3A4 inhibition (in words) (CYP3A4 (BDGentest)): strong CYP3A4 inhibitors
OCCCc1cc2c(cc1OCc1ccccc1)OCO2 | 3 | 3000 nM | –
COc1c(CCCOCc2ccccc2)cc2c(c1OC)OCO2 | 1.38 | 6660 nM | –
COc1ccc(OC)c(COc2cc3c(cc2CCCOC(=O)C(c2ccccc2)c2ccccc2)OCO3)c1 [Compound 69] | – | – | CYP3A4 inhibition (in words) (CYP3A4 (BDGentest)): strong CYP3A4 inhibitors

— US9386767B2, “Derivatives of dillapiol and related monolignans and use thereof” (UNIVERSITY OF OTTAWA, priority 2011, dated 2016)
